Reference: US20190231841A1, “CENCHRUS CILIARIS L. AS AN ANTICANCER AGENT” (KING SAUD UNIVERSITY, priority 2018, published 2019)
Counter-ions that a name gives are not always drawn.

Key:
Type in all cases: cell-based
[1] = tested on: CACO (Colorectal carcinoma); test: MTT cytotoxicity assay, CACO; conditions: 24 h incubation
Method: (§1) The cell lines A-549 (Lung carcinoma), CACO (Colorectal carcinoma), HCT-116 (Colon carcinoma), Hela (Cervical carcinoma), HepG-2 (Hepatocellular carcinoma), and MCF-7 (Breast carcinoma) were obtained from the Regional Center for Mycology and Biotechnology, Al-Azhar University, Cairo, Egypt.
(§2) The antitumor assay was carried out on the above cell lines as published by A Ooi et al., ‘A Guide to Transient Expression of Membrane Proteins in HEK-293 Cells for Functional Characterization”, Front. Physiol. 7:300, published online 19 Jul. 2016, for all of the extracts which have been obtained in section above (A, R, AL, APC, RPC, APB, RPB, AR &RR). Briefly, the cell lines were suspended in medium at a concentration of 5×10^4 cell/well in Corning® 96-well tissue culture plates and then incubated for 24 hr. The tested extracts were then added into 96-well plates (six replicates) to achieve seven concentrations for each extract. […] After incubation for 24 h, the numbers of viable cells were determined by the MTT assay method. […] Then, the optical density was measured at 590 nm with the microplate reader to determine the number of viable cells. The percentage of viability was calculated as: (ODt/ODc)×100%, where ODt is the mean optical density of wells treated with the tested sample and ODc is the mean optical density of untreated cells. […]

[2] = tested on: MCF-7 (Breast carcinoma); test: MTT cytotoxicity assay, MCF-7; conditions: Homo sapiens, MCF7, 24 h incubation
Method: as §1, §2

[3] = tested on: HepG-2 (Hepatocellular carcinoma); test: MTT cytotoxicity assay, HepG-2; conditions: Homo sapiens, HepG2, 24 h incubation
Method: as §1, §2

[4] = tested on: A-549 (Lung carcinoma); test: MTT cytotoxicity assay, A-549; conditions: Homo sapiens, A549, 24 h, 24 h incubation
Method: as §1, §2

[5] = tested on: HCT-116 (Colon carcinoma); test: MTT cytotoxicity assay, HCT-116; conditions: Homo sapiens, 24 h incubation
Method: as §1, §2

Compound: CC[C@]1(O)C[C@@H]2CN(CCc3c([nH]c4ccccc34)[C@@](C(=O)OC)(c3cc4c(cc3OC)N(C)[C@H]3[C@@](O)(C(=O)OC)[C@H](OC(C)=O)[C@]5(CC)C=CCN6CC[C@]43[C@@H]65)C2)C1 [Vinblastine sulfate]
- IC50 ([1]; 24 h): 24.6 ± 0.7 µg/mL
- IC50 CACO (Colorectal carcinoma) [1]: 30.3 ± 1.4 µg/mL
- IC50 [2]: 5.9 ± 0.4 µg/mL
- IC50 [3]: 2.93 ± 0.3 µg/mL
- IC50 [4]: 30.3 ± 1.4 µg/mL
- IC50 [5]: 3.5 ± 0.2 µg/mL
